The target of this experiment is TNFα (Homo sapiens, UniProt P01375). As to the kind of experiment: TNFα FP Competitive Binding Assay. The following applies: 20 nM TNFα trimer, 1 nM OregonGreen488 probe, read-out: TNF IC50. The method, then:
TNFα FP Competitive Binding Assay
Prepare 1× Assay Buffer (Water with 47 mil HEPES, 47 mM NaCl, 0.9 mM EDTA, 0.0071% Triton X-100) by adding 25 mL of 1 M HEPES, 5 mL of 5 M NaCl, 1 mL of 0.5 M EDTA, and 375 μL of a 10% Triton X-100 stock to a fresh 500 mL bottle of water.
Prepare fresh Assay Mixture containing 20 nM TNFα trimer (60 nM protein) and 1 nM 2′,7′-difluoro-3′,6′-dihydroxy-N-(2-(2-(2-((4-(isoquinolin-8-yl)-3-(4-(isoquinolin-8-yl)phenethoxy)benzyl)oxy)ethoxy)ethoxy)ethyl)-3-oxo-3H- spiro[isobenzofuran-1,9′-xanthene]-5-carboxamide probe in 1× Assay Buffer.
Top concentration of compounds, 10 mM in DMSO, dispensed in rows A-O in columns 1 and 13. Compounds are serially diluted 1:3 with DMSO in columns 2-12 or 14-24 using a 16-channel Matrix pipettor. Plates stored at −20° C.
Top concentration, 5 mM in DMSO, of compounds placed in rows A-O in columns 1 and 13.
Compounds are serially diluted 1:3 with DMSO in columns 2-12 or 14-24. Compound solutions are dispensed into replicate assay plates at 410 nL per well. Plates stored at 4° C.
TNFα FP Competitive Binding Assay Protocol • 1. Compound plates warmed to rt. • 2. Fresh Assay Mixture is prepared. • 3. Assay Mixture (20 μL) is dispensed each well of 384 assay plates using a Thermo Multidrop Combi or 16-channel Matrix pipettor. If Manual 12-point 1:3 Dilution Plates are to be tested, Assay Mix is dispensed into empty plates. Discovery Preps 12-point 1:3 Dilution Plates already contain 410 nL compound solution in DMSO. • 4. For Manual 12-point 1:3 Dilution Plates, 0.7 μL is manually transferred using a 16-channel Matrix pipettor to replicate assay plates containing 20 μL Assay Mixture for a final top compound concentration of […] (3.4% DMSO). • 5. For Discovery Preps 12-point 1:3 Dilution Plates, 20 μL Assay Mixture added the 410 nL compound solution already in the plates yields a final top compound concentration of 100 μM (2.0% DMSO). • 6. Background subtraction controls are wells P1-P8 containing only Assay Buffer. The low % inhibition controls are wells P9-P16 containing only Assay Mix. The high % inhibition are wells P17-P24 containing only 1 nM 2′,7′-difluoro-3′,6′-dihydroxy-N-(2-(2-(2-((4-(isoquinolin-8-yl)-3-(4-(isoquinolin-8-yl)phenethoxy)benzyl)oxy)ethoxy)ethoxy)ethyl)-3-oxo-3H-spiro[isobenzofuran-1,9′-xanthene]-5-carboxamide probe in 1× Assay Buffer. • 7. Plates are incubated at rt for 18-24 h in […] (CO2 is off). • 8. Prior to reading the assay, the plates are placed in a dark cabinet to equilibrate at rt for one hour. • 9. Background-subtracted fluorescence polarization (mP) is measured using a PerkinElmer Envision plate reader. • 10. Raw data is entered into Assay Explorer and dose-response curves are generated using a variable slope curve.
Sequence of TNFα (P01375 77-233 limits assumed): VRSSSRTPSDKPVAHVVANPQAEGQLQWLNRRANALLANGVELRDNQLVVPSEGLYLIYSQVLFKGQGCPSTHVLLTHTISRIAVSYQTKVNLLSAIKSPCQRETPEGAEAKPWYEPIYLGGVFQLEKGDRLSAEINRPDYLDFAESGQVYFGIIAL
One may read the IC50 as the point on the concentration scale where inhibition reaches its midpoint. For the compound `O=C(O)C1CCN(c2ncc(-c3ccc4c(=O)n5n(c4c3)C(c3ccccc3OC(F)F)CC5)cn2)CC1` (stereo not shown) [Example 1.3, 1-(5-(3-(2-(difluoromethoxy)phenyl)-9-oxo-1,2,3,9-tetrahydropyrazolo[1,2-a]indazol-6-yl)pyrimidin-2-yl)piperidine-4-carboxylic acid], the IC50 lay within 1000 to 10000 nM.

On to `O=c1c2ccc(-c3cnc(N4CCC(O)CC4)nc3)cc2n2n1CCC2c1ccccc1OC(F)F` (stereo not shown) [Example 4.2, 3-(2-(difluoromethoxy)phenyl)-6-(2-(4-hydroxypiperidin-1-yl)pyrimidin-5-yl)-2,3-dihydropyrazolo[1,2-c]indazol-9(1H)-one], for which the IC50 is less than 1000 nM.

For `CC(=O)N1CCN(c2ncc(-c3ccc4c(=O)n5n(c4c3)[C@@H](c3ccccc3OC(F)F)CC5)cn2)[C@H](C)C1` [Example 6.5, (R)-6-(2-((R)-4-acetyl-2-methylpiperazin-1-yl)pyrimidin-5-yl)-3-(2-(difluoromethoxy)phenyl)-2,3-dihydropyrazolo[1,2-a]indazol-9(1H)-one], the IC50 was less than 1000 nM.

Consider `Cc1nc(C(C)(C)O)ncc1-c1ccc2c(=O)n3n(c2c1)[C@@H](c1ccccc1OC(F)F)CC3` [Example 6.6], for which the IC50 was less than 1000 nM.

Turning to `O=c1c2ccc(-c3cnc(N4CCOCC4)nc3)cc2n2n1CCCC2c1ccccc1OC(F)F` (stereo not shown) [Example 7.1, 6-(2-(difluoromethoxy)phenyl)-3-(2-morpholinopyrimidin-5-yl)-8,9-dihydro-6H-pyridazino[1,2-a]indazol-11(7H)-one], the IC50 was less than 1000 nM.

Regarding `O=c1c2ccc(-c3cnc(N4CCC(O)CC4)nc3)cc2n2n1CCCC2c1ccccc1OC(F)F` (stereo not shown) [Example 7.2, 6-(2-(difluoromethoxy)phenyl)-3-(2-(4-hydroxypiperidin-1-yl)pyrimidin-5-yl)-8,9-dihydro-6H-pyridazino[1,2-a]indazol-11(7H)-one], the IC50 lay in the range of 1000 to 10000 nM.

For `Cc1cccc(C2CCn3c(=O)c4ccc(-c5cnc(N6CCOCC6)nc5)cc4n32)c1C#N` (stereo not shown) [Example 8.1, 2-methyl-6-(6-(2-morpholinopyrimidin-5-yl)-9-oxo-1,2,3,9-tetrahydropyrazolo[1,2-a]indazol-3-yl)benzonitrile], the IC50 fell in the range of 1000 to 10000 nM.

As for `O=c1c2ccc(-c3cnc(N4CCOCC4)nc3)cc2n2n1CCC2c1ccccc1` (stereo not shown) [Example 8.2, 6-(2-morpholinopyrimidin-5-yl)-3-phenyl-2,3-dihydropyrazolo[1,2-a]indazol-9(1H)-one], the concentration for half-maximal inhibition (IC50) was in the range of 1000 to 10000 nM.

With `COc1ccc(C#N)cc1C1CCn2c(=O)c3ccc(-c4cnc(N5CCOCC5)nc4)cc3n21` (stereo not shown) [Example 8.3, 4-methoxy-3-(6-(2-morpholinopyrimidin-5-yl)-9-oxo-1,2,3,9-tetrahydropyrazolo[1,2-a]indazol-3-yl)benzonitrile], the IC50 is 1000 to 10000 nM.

In the case of `COc1c(C#N)cccc1C1CCn2c(=O)c3ccc(-c4cnc(N5CCOCC5)nc4)cc3n21` (stereo not shown) [Example 8.4, 2-methoxy-3-(6-(2-morpholinopyrimidin-5-yl)-9-oxo-1,2,3,9-tetrahydropyrazolo[1,2-a]indazol-3-yl)benzonitrile], the IC50 was in the range of 1000 to 10000 nM.

Turning to `CC(C)n1nccc1C1CCn2c(=O)c3ccc(-c4cnc(N5CCOCC5)nc4)cc3n21` (stereo not shown) [Example 8.5, 3-(1-isopropyl-1H-pyrazol-5-yl)-6-(2-morpholinopyrimidin-5-yl)-2,3-dihydropyrazolo[1,2-a]indazol-9(1H)-one], the IC50 is greater than 10000 nM.

Consider `Cc1ccc(OC(F)F)c([C@@H]2CCn3c(=O)c4ccc(-c5cnc(C(C)(C)O)nc5)cc4n32)c1` [Example 14.2], for which the IC50 is less than 1000 nM.

On to `COc1ccc(CO)cc1C1CCn2c(=O)c3ccc(-c4cnc(N5CCOCC5)nc4)cc3n21` (stereo not shown) [Example 19, 3-(5-(Hydroxymethyl)-2-methoxyphenyl)-6-(2-morpholinopyrimidin-5-yl)-2,3-dihydropyrazolo[1,2-a]indazol-9(1H)-one], for which the IC50 lay within 1000 to 10000 nM.

The values are drawn from patent US10273238B2, “Indazolones as modulators of TNF signaling” (AbbVie Inc., priority 2015, dated 2019).
